Experimental data taken from ChEMBL document CHEMBL1201862, “PubChem BioAssay data set” (2004).
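Values below derive from 48-hour exposures of cells grown in 96-well plates, with endpoints linearly interpolated between the two concentrations bracketing the appropriate inhibition level. The concentration for 50% growth inhibition is given as GI50.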 Active and inactive are the calls of the source. No stated cut-off is given here; in the data, active = GI50 up to about 1.1 µM and inactive = higher.

Key:
Assay in all cases: NCI-60 cell line screen, 48 h
786-0 = system: 786-0
A498 = system: A498
A549 = system: A549
ACHN = system: ACHN
BT-549 = system: BT-549
CAKI-1 = system: CAKI-1
CCRF-CEM = system: CCRF-CEM
COLO 205 = system: COLO 205
DU-145 = system: DU-145
EKVX = system: EKVX
HCC 2998 = system: HCC 2998
HCT-116 = system: HCT-116
HCT-15 = system: HCT-15
HL-60 = system: HL-60
HOP-62 = system: HOP-62
HOP-92 = system: HOP-92
HT-29 = system: HT-29
Hs-578T = system: Hs-578T
IGROV-1 = system: IGROV-1
K562 = system: K562
KM12 = system: KM12
LOX IMVI = system: LOX IMVI
M14 = system: M14
MCF7 = system: MCF7
MDA-MB-231 = system: MDA-MB-231
MDA-MB-435 = system: MDA-MB-435
MDA-N = system: MDA-N
MOLT-4 = system: MOLT-4
Malme-3M = system: Malme-3M
NCI-H226 = system: NCI-H226
NCI-H23 = system: NCI-H23
NCI-H460 = system: NCI-H460
NCI-H522 = system: NCI-H522
NCI/ADR-RES = system: NCI/ADR-RES
OVCAR-3 = system: OVCAR-3
OVCAR-4 = system: OVCAR-4
OVCAR-5 = system: OVCAR-5
OVCAR-8 = system: OVCAR-8
PC-3 = system: PC-3
RPMI-8226 = system: RPMI-8226
RXF 393 = system: RXF 393
SF-268 = system: SF-268
SF-295 = system: SF-295
SF-539 = system: SF-539
SK-MEL-28 = system: SK-MEL-28
SK-MEL-2 = system: SK-MEL-2
SK-MEL-5 = system: SK-MEL-5
SK-OV-3 = system: SK-OV-3
SN12C = system: SN12C
SNB-19 = system: SNB-19
SNB-75 = system: SNB-75
SR = system: SR
SW-620 = system: SW-620
T47D = system: T47D
TK-10 = system: TK-10
U-251 = system: U-251
UACC-257 = system: UACC-257
UACC-62 = system: UACC-62
UO-31 = system: UO-31

Question: Which results are given for `COC1/C=C/C(C)C(C(C)C(OC)C(C)CCC(=O)C(C)C(C/C=C/N(C)C=O)OC)OC(=O)/C=C/C=C(\C)CC(OC)C(OC)C2=CC(=O)O[C@@H](C(C)C(OC)CC(OC)/C=C/C(C)C(O)C1)[C@H]2O` (some centres not stated)?
Answer: GI50 (786-0): 147 nM (active); GI50 (A498): 72.3 nM (active); GI50 (A549): 150 nM (active); GI50 (ACHN): 91.4 nM (active); GI50 (BT-549): 117 nM (active); GI50 (CAKI-1): 50.8 nM (active); GI50 (CCRF-CEM): 39 nM (active); GI50 (COLO 205): 72.1 nM (active); GI50 (DU-145): 373 nM (active); GI50 (EKVX): 154 nM (active); GI50 (HCC 2998): 71.6 nM (active); GI50 (HCT-116): < 22.2 nM (active); GI50 (HCT-15): 47.9 nM; GI50 (HL-60): 96.4 nM (active); GI50 (HOP-62): 70.5 nM (active); GI50 (HOP-92): 28.4 nM (active); GI50 (HT-29): 61.5 nM (active); GI50 (Hs-578T): 33.6 nM (active); GI50 (IGROV-1): 119 nM (active); GI50 (K562): 37.9 nM (active); GI50 (KM12): 164 nM (active); GI50 (LOX IMVI): 14.5 nM (active); GI50 (M14): 140 nM (active); GI50 (MCF7): 208 nM (active); GI50 (MDA-MB-231): 77.3 nM (active); GI50 (MDA-MB-435): 249 nM (active); GI50 (MDA-N): 208 nM (active); GI50 (MOLT-4): 105 nM (active); GI50 (Malme-3M): 148 nM (active); GI50 (NCI-H226): 60 nM (active); GI50 (NCI-H23): 145 nM (active); GI50 (NCI-H460): 75.9 nM (active); GI50 (NCI-H522): 119 nM (active); GI50 (NCI/ADR-RES): 226 nM (active); GI50 (OVCAR-3): 68.1 nM (active); GI50 (OVCAR-4): 121 nM (active); GI50 (OVCAR-5): 163 nM (active); GI50 (OVCAR-8): 220 nM (active); GI50 (PC-3): 85.5 nM (active); GI50 (RPMI-8226): 35.6 nM (active); GI50 (RXF 393): 121 nM (active); GI50 (SF-268): 129 nM (active); GI50 (SF-295): 115 nM (active); GI50 (SF-539): 128 nM (active); GI50 (SK-MEL-28): 192 nM (active); GI50 (SK-MEL-2): 27.6 nM (active); GI50 (SK-MEL-5): 90.4 nM (active); GI50 (SK-OV-3): 122 nM (active); GI50 (SN12C): 126 nM (active); GI50 (SNB-19): 171 nM (active); GI50 (SNB-75): 26.8 nM (active); GI50 (SR): 80.9 nM (active); GI50 (SW-620): 120 nM (active); GI50 (T47D): 208 nM (active); GI50 (TK-10): 74.5 nM (active); GI50 (U-251): 111 nM (active); GI50 (UACC-257): 130 nM (active); GI50 (UACC-62): 137 nM (active); GI50 (UO-31): 137 nM (active)

Question: How did the GI50 (786-0) turn out when `Cc1c(-c2ccccc2)c(C#N)c2nnn(C)c(=O)n12` was run?
Answer: > 100000 nM (inactive)

Question: What about the GI50 (A498) of the same compound?
Answer: 91600 nM (inactive)

Question: And the GI50 (A549)?
Answer: > 100000 nM (inactive)

Question: And the GI50 (ACHN)?
Answer: > 100000 nM (inactive)

Question: And the GI50 (BT-549)?
Answer: > 100000 nM (inactive)

Question: And the GI50 (CAKI-1)?
Answer: > 100000 nM (inactive)

Question: What about the GI50 (CCRF-CEM) of the same compound?
Answer: > 100000 nM (inactive)

Question: What about the GI50 (COLO 205) of the same compound?
Answer: > 100000 nM (inactive)

Question: And the GI50 (DU-145)?
Answer: > 100000 nM (inactive)

Question: And the GI50 (EKVX)?
Answer: > 100000 nM (inactive)

Question: And the GI50 (HCC 2998)?
Answer: > 100000 nM (inactive)

Question: And the GI50 (HCT-116)?
Answer: > 100000 nM (inactive)

Question: What about the GI50 (HCT-15) of the same compound?
Answer: > 100000 nM

Question: And the GI50 (HL-60)?
Answer: > 100000 nM (inactive)

Question: What about the GI50 (HOP-62) of the same compound?
Answer: 44000 nM (inactive)

Question: And the GI50 (HOP-92)?
Answer: > 100000 nM (inactive)

Question: What about the GI50 (HT-29) of the same compound?
Answer: > 100000 nM (inactive)

Question: And the GI50 (Hs-578T)?
Answer: > 100000 nM (inactive)

Question: And the GI50 (IGROV-1)?
Answer: > 100000 nM (inactive)

Question: And the GI50 (K562)?
Answer: > 100000 nM (inactive)

Question: What about the GI50 (KM12) of the same compound?
Answer: > 100000 nM (inactive)

Question: And the GI50 (LOX IMVI)?
Answer: > 100000 nM (inactive)

Question: And the GI50 (M14)?
Answer: > 100000 nM (inactive)

Question: What about the GI50 (MCF7) of the same compound?
Answer: > 100000 nM (inactive)

Question: What about the GI50 (MDA-MB-231) of the same compound?
Answer: > 100000 nM (inactive)

Question: What about the GI50 (MDA-MB-435) of the same compound?
Answer: > 100000 nM (inactive)

Question: What about the GI50 (MDA-N) of the same compound?
Answer: > 100000 nM (inactive)

Question: And the GI50 (Malme-3M)?
Answer: > 100000 nM (inactive)

Question: What about the GI50 (NCI-H226) of the same compound?
Answer: > 100000 nM (inactive)

Question: What about the GI50 (NCI-H23) of the same compound?
Answer: > 100000 nM (inactive)

Question: What about the GI50 (NCI-H460) of the same compound?
Answer: > 100000 nM (inactive)

Question: And the GI50 (NCI-H522)?
Answer: > 100000 nM (inactive)

Question: And the GI50 (NCI/ADR-RES)?
Answer: > 100000 nM (inactive)

Question: What about the GI50 (OVCAR-3) of the same compound?
Answer: > 100000 nM (inactive)

Question: And the GI50 (OVCAR-4)?
Answer: > 100000 nM (inactive)

Question: And the GI50 (OVCAR-5)?
Answer: > 100000 nM (inactive)

Question: What about the GI50 (OVCAR-8) of the same compound?
Answer: > 100000 nM (inactive)

Question: And the GI50 (PC-3)?
Answer: 64300 nM (inactive)

Question: What about the GI50 (RPMI-8226) of the same compound?
Answer: > 100000 nM (inactive)

Question: What about the GI50 (RXF 393) of the same compound?
Answer: 57100 nM (inactive)

Question: What about the GI50 (SF-268) of the same compound?
Answer: > 100000 nM (inactive)

Question: What about the GI50 (SF-295) of the same compound?
Answer: 68900 nM (inactive)

Question: And the GI50 (SF-539)?
Answer: > 100000 nM (inactive)

Question: And the GI50 (SK-MEL-28)?
Answer: > 100000 nM (inactive)

Question: And the GI50 (SK-MEL-2)?
Answer: > 100000 nM (inactive)

Question: What about the GI50 (SK-MEL-5) of the same compound?
Answer: > 100000 nM (inactive)

Question: And the GI50 (SK-OV-3)?
Answer: 96200 nM (inactive)

Question: What about the GI50 (SN12C) of the same compound?
Answer: > 100000 nM (inactive)

Question: What about the GI50 (SNB-19) of the same compound?
Answer: > 100000 nM (inactive)

Question: What about the GI50 (SNB-75) of the same compound?
Answer: 42800 nM (inactive)

Question: And the GI50 (SR)?
Answer: 65600 nM (inactive)

Question: And the GI50 (SW-620)?
Answer: > 100000 nM (inactive)

Question: And the GI50 (T47D)?
Answer: > 100000 nM (inactive)

Question: And the GI50 (TK-10)?
Answer: > 100000 nM (inactive)

Question: What about the GI50 (U-251) of the same compound?
Answer: > 100000 nM (inactive)

Question: And the GI50 (UACC-257)?
Answer: > 100000 nM (inactive)

Question: And the GI50 (UACC-62)?
Answer: > 100000 nM (inactive)

Question: What about the GI50 (UO-31) of the same compound?
Answer: > 100000 nM (inactive)
